Assay results reported in paper PMC11905058, “Novel Leech Antimicrobial Peptides, Hirunipins: Real‐Time 3D Monitoring of Antimicrobial and Antibiofilm Mechanisms Using Optical Diffraction Tomography” (Advanced Science, 2025).
No end group written: not given here.

Legend:
[1] = system: MDRAB (329-53); conditions: for FICI: fractional inhibitory concentration index, FICA + FICB / Interpretation of FICI: antibiotic in combination with hirunipin 2; for MICA: MIC of antibiotic alone: checkerboard, MDRAB, 1×10^6 CFU/mL; for FICA: fractional inhibitory concentration of antibiotic ([A] / MICA) / [A]: MIC of antibiotic in combination: in combination with hirunipin 2
Protocol: Synergy testing by checkerboard assay: Briefly, each 96-well microtiter plate was inoculated with two-fold serial dilutions of two antibiotics, ranging from 1/8 MIC to 2 MIC, such that one antibiotic was inoculated in the columns and the other in the rows. Then, MDRAB (329-53) cells were inoculated at a concentration of 1× 10^6 CFU/mL. The plates were incubated overnight under static conditions and observed visually.

[2] = system: MDRE (328-84); format: cell-based, Enterobacter cloacae; conditions: 24 h
Protocol: (§1) The MICs of the peptides were measured by the Clinical and Laboratory Standards Institute (CLSI) broth microdilution method, as outlined in a previous study.^[ [26], [27] ^]
(§2) Microbial Strains and Cell Lines: Multiple bacterial strains were used in this study. Standard stains included Escherichia coli (KCTC 1682), Pseudomonas aeruginosa (KCTC 1637), Staphylococcus aureus (KCTC1621) and Staphylococcus epidermidis (KCTC 1917) supplied from the Korean Collection for Type Cultures (KCTC) of the Korea Research Institute of Bioscience and Biotechnology (KRIBB). Clinically isolated multidrug-resistant bacteria included multidrug-resistant Klebsiella pneumonia (MDRKP 328-83), multidrug-resistant Acinetobacter baumannii (MDRAB 329-53), multidrug-resistant Pseudomonas aeruginosa (MDRPA 314-69), multidrug-resistant Enterobacter cloacae (MDRE 328-84) and multidrug-resistant Escherichia coli (MDREC 329-66) provided from Hospital of Chosun University, Korea. All bacterial strains were stored in 20% glycerol at −80 °C. For the subsequent experiments, the bacteria were recovered and cultured in the corresponding enrichment broth at 37 °C. The mouse macrophage RAW264.7, mouse fibroblast NIH-3T3 and human keratinocyte HaCat cells were cultured in Dulbecco’s modified Eagle’s medium (DMEM), supplemented with 10% (v/v) of fetal bovine serum (Sigma-Aldrich), 100 U/mL of penicillin and 0.1 mg/mL of streptomycin, at 37 °C in the presence of 5% CO2
(§3) Minimal Inhibitory Concentrations (MICs): Bacteria were grown to mid-logarithmic phase and diluted in Mueller-Hinton broth (MHB) (Difco). The bacterial suspension (1×10^6 CFU/well) was added to a 96-well microtiter plate along with a two-fold serial dilution of samples. The plate was incubated at 37 °C for 24 hours and the bacterial growth inhibition was assessed by measuring the optical density using an ELISA plate reader. The minimum inhibitory concentration (MIC) was defined as the lowest concentration of samples that prevented visible bacterial growth.

[3] = system: E. coli (KCTC 1682); format: cell-based, Escherichia coli; conditions: KCTC 1682, 24 h
Protocol: as §3, with “The salt sensitivity of the peptides was also analyzed. […] The MIC values in the physiological environment were determined as described above, and data were acquired from three independent assays performed in triplicate. Minimal” for “Minimal”

[4] = system: MDREC (329-66); format: cell-based, Escherichia coli; conditions: 24 h
Protocol: as §1, §2, §3

[5] = system: MDRAB (329-53); format: cell-based, Acinetobacter baumannii; conditions: 24 h
Protocol: as §1, §2, §3

[6] = system: MDRKP (328-83); format: cell-based, Klebsiella pneumonia; conditions: 24 h
Protocol: as §1, §2, §3

[7] = system: Escherichia coli [KCTC 1682]; format: cell-based; conditions: KCTC 1682, 24 h
Protocol: as §1, §3

[8] = system: Staphylococcus epidermidis [KCTC 1917]; format: cell-based; conditions: KCTC 1917, 24 h
Protocol: as §1, §3

[9] = system: Staphylococcus aureus [KCTC1621]; format: cell-based; conditions: KCTC1621, 24 h
Protocol: as §1, §3

[10] = system: Pseudomonas aeruginosa [KCTC 1637]; format: cell-based; conditions: KCTC 1637, 24 h
Protocol: as §1, §3

[11] = system: S. aureus (KCTC1621); format: cell-based, Staphylococcus aureus; conditions: KCTC1621, 24 h
Protocol: as §3, with “The salt sensitivity of the peptides was also analyzed. […] The MIC values in the physiological environment were determined as described above, and data were acquired from three independent assays performed in triplicate. Minimal” for “Minimal”

[12] = system: MDRPA (314-69); format: cell-based, Pseudomonas aeruginosa; conditions: 24 h
Protocol: as §1, §2, §3

**Q.** O=C(N[C@H](CO)[C@H](O)c1ccc([N+](=O)[O-])cc1)C(Cl)Cl [CHL, Chloramphenicol] was tested. Which “FICI: fractional inhibitory concentration index, FICA + FICB” value [1] did it give?
**A.** 0.1875

**Q.** What about the “Interpretation of FICI” value [1] of the same compound?
**A.** synergy (FICI ≤ 0.5 was interpreted as synergy)

**Q.** And the “MICA: MIC of antibiotic alone” value [1]?
**A.** 1024 µg/mL

**Q.** And the “FICA: fractional inhibitory concentration of antibiotic ([A] / MICA)” value [1]?
**A.** 0.125

**Q.** What about the “[A]: MIC of antibiotic in combination” value [1] of the same compound?
**A.** 128 µg/mL

**Q.** With O=C(O)c1cn(C2CC2)c2cc(N3CCNCC3)c(F)cc2c1=O [CIP, Ciprofloxacin] as the compound, how does the “Interpretation of FICI” value [1] read?
**A.** synergy (FICI ≤ 0.5 was interpreted as synergy)

**Q.** And the “MICA: MIC of antibiotic alone” value [1]?
**A.** 128 µg/mL

**Q.** And the “FICA: fractional inhibitory concentration of antibiotic ([A] / MICA)” value [1]?
**A.** 0.25

**Q.** What about the “[A]: MIC of antibiotic in combination” value [1] of the same compound?
**A.** 32 µg/mL

**Q.** Which results are given for CO[C@H]1/C=C/O[C@@]2(C)Oc3c(C)c(O)c4c(O)c(c(/C=N/N5CCN(C)CC5)c(O)c4c3C2=O)NC(=O)/C(C)=C\C=C\[C@H](C)[C@H](O)[C@@H](C)[C@@H](O)[C@@H](C)[C@H](OC(C)=O)[C@@H]1C [RIF, Rifampicin]?
**A.** FICI: fractional inhibitory concentration index, FICA + FICB [1]: 0.3125; Interpretation of FICI [1]: synergy (FICI ≤ 0.5 was interpreted as synergy); MICA: MIC of antibiotic alone [1]: 16 µg/mL; FICA: fractional inhibitory concentration of antibiotic ([A] / MICA) [1]: 0.0625; [A]: MIC of antibiotic in combination [1]: 1 µg/mL

**Q.** Which results are given for “LLKKLLRSLIKPAIMKIINTPPQEKLQK-NH2 [Hirunipin 1]”?
**A.** Minimum inhibitory concentrations, MDRE (328-84) [2]: >128 µg/mL; MIC against E. coli (KCTC 1682), 4 µM FeCl3 [3]: 128 µg/mL; MIC against E. coli (KCTC 1682), 6 µM NH4Cl [3]: 128 µg/mL; MIC against E. coli (KCTC 1682), 1 mM MgCl2 [3]: 256 µg/mL; MIC against E. coli (KCTC 1682), 2.5 mM CaCl2 [3]: 256 µg/mL; MIC against E. coli (KCTC 1682), 4.5 mM KCl [3]: 256 µg/mL; MIC against E. coli (KCTC 1682), 150 mM NaCl [3]: 256 µg/mL; MIC against E. coli (KCTC 1682), 25% Human serum [3]: 128 µg/mL; MIC against E. coli (KCTC 1682), Control [3]: 64 µg/mL; Minimum inhibitory concentrations, MDREC (329-66) [4]: 64 µg/mL; Minimum inhibitory concentrations, MDRAB (329-53) [5]: >128 µg/mL; Minimum inhibitory concentrations, MDRKP (328-83) [6]: >128 µg/mL; Minimum inhibitory concentration (MIC), Escherichia coli [KCTC 1682] [7]: 64 µg/mL; Minimum inhibitory concentration (MIC), Staphylococcus epidermidis [KCTC 1917] [8]: 32 µg/mL; Minimum inhibitory concentration (MIC), Staphylococcus aureus [KCTC1621] [9]: 64 µg/mL; Minimum inhibitory concentration (MIC), Pseudomonas aeruginosa [KCTC 1637] [10]: 32 µg/mL; MIC against S. aureus (KCTC1621), 4 µM FeCl3 [11]: 64 µg/mL; MIC against S. aureus (KCTC1621), 6 µM NH4Cl [11]: 256 µg/mL; MIC against S. aureus (KCTC1621), 1 mM MgCl2 [11]: 256 µg/mL; MIC against S. aureus (KCTC1621), 2.5 mM CaCl2 [11]: 256 µg/mL; MIC against S. aureus (KCTC1621), 4.5 mM KCl [11]: 256 µg/mL; MIC against S. aureus (KCTC1621), 150 mM NaCl [11]: 256 µg/mL; MIC against S. aureus (KCTC1621), 25% Human serum [11]: 256 µg/mL; MIC against S. aureus (KCTC1621), Control [11]: 64 µg/mL; Minimum inhibitory concentrations, MDRPA (314-69) [12]: 64 µg/mL

**Q.** For QKFNGKSYALAKKMKKRQVKFLNRILDQL [LP19], which “Minimum inhibitory concentration (MIC), Escherichia coli [KCTC 1682]” value [7] is on record?
**A.** >128 µg/mL

**Q.** What about the “Minimum inhibitory concentration (MIC), Staphylococcus epidermidis [KCTC 1917]” value [8] of the same compound?
**A.** >128 µg/mL

**Q.** What about the “Minimum inhibitory concentration (MIC), Staphylococcus aureus [KCTC1621]” value [9] of the same compound?
**A.** >128 µg/mL

**Q.** And the “Minimum inhibitory concentration (MIC), Pseudomonas aeruginosa [KCTC 1637]” value [10]?
**A.** >128 µg/mL

**Q.** How did the “Minimum inhibitory concentration (MIC), Escherichia coli [KCTC 1682]” value [7] turn out when VLNVQSIMSWNKRVGGMILNLKT [LP11] was run?
**A.** >128 µg/mL

**Q.** What about the “Minimum inhibitory concentration (MIC), Staphylococcus epidermidis [KCTC 1917]” value [8] of the same compound?
**A.** >128 µg/mL

**Q.** And the “Minimum inhibitory concentration (MIC), Staphylococcus aureus [KCTC1621]” value [9]?
**A.** >128 µg/mL

**Q.** What about the “Minimum inhibitory concentration (MIC), Pseudomonas aeruginosa [KCTC 1637]” value [10] of the same compound?
**A.** >128 µg/mL

**Q.** What does the source list for “YFKIIKFLPKALKCLLPQKHKEHGNL-NH2 [Hirunipin 3]”?
**A.** Minimum inhibitory concentrations, MDRE (328-84) [2]: >128 µg/mL; MIC against E. coli (KCTC 1682), 4 µM FeCl3 [3]: 32 µg/mL; MIC against E. coli (KCTC 1682), 6 µM NH4Cl [3]: 64 µg/mL; MIC against E. coli (KCTC 1682), 1 mM MgCl2 [3]: 256 µg/mL; MIC against E. coli (KCTC 1682), 2.5 mM CaCl2 [3]: 32 µg/mL; MIC against E. coli (KCTC 1682), 4.5 mM KCl [3]: 128 µg/mL; MIC against E. coli (KCTC 1682), 150 mM NaCl [3]: 128 µg/mL; MIC against E. coli (KCTC 1682), 25% Human serum [3]: 256 µg/mL; MIC against E. coli (KCTC 1682), Control [3]: 128 µg/mL; Minimum inhibitory concentrations, MDREC (329-66) [4]: 128 µg/mL; Minimum inhibitory concentrations, MDRAB (329-53) [5]: >128 µg/mL; Minimum inhibitory concentrations, MDRKP (328-83) [6]: >128 µg/mL; Minimum inhibitory concentration (MIC), Escherichia coli [KCTC 1682] [7]: 128 µg/mL; Minimum inhibitory concentration (MIC), Staphylococcus epidermidis [KCTC 1917] [8]: 64 µg/mL; Minimum inhibitory concentration (MIC), Staphylococcus aureus [KCTC1621] [9]: 128 µg/mL; Minimum inhibitory concentration (MIC), Pseudomonas aeruginosa [KCTC 1637] [10]: 128 µg/mL; MIC against S. aureus (KCTC1621), 4 µM FeCl3 [11]: >256 µg/mL; MIC against S. aureus (KCTC1621), 6 µM NH4Cl [11]: 256 µg/mL; MIC against S. aureus (KCTC1621), 1 mM MgCl2 [11]: 256 µg/mL; MIC against S. aureus (KCTC1621), 2.5 mM CaCl2 [11]: 256 µg/mL; MIC against S. aureus (KCTC1621), 4.5 mM KCl [11]: 256 µg/mL; MIC against S. aureus (KCTC1621), 150 mM NaCl [11]: 256 µg/mL; MIC against S. aureus (KCTC1621), 25% Human serum [11]: >256 µg/mL; MIC against S. aureus (KCTC1621), Control [11]: 128 µg/mL; Minimum inhibitory concentrations, MDRPA (314-69) [12]: >128 µg/mL
